According to article PMC5640650, “NatD promotes lung cancer progression by preventing histone H4 serine phosphorylation to activate Slug expression” (Nature Communications, 2017):

How the values were obtained:
A549 cells = test: Tail vein xenograft in SCID mice, A549 cells; assay type: in vivo, human
Text: Fig. 3 NatD promotes lung cancer cell invasion in a xenograft mouse model. a (left) Representative bioluminescent (BLI) images acquired at the indicated time points after intravenous injection of SCID mice with Scr or NatD-KD A549 cells. NatD-KD2 cells were used because the KD2 shRNA produced a better knockdown effect. Pseudocolor heat-maps indicate intensity of bioluminescence from low (blue) to high (red) (D, day). (right) Normalized BLI signals of lung tumors of corresponding mice (n = 5 for each group) recorded at the indicated time points. Results are shown as mean ± s.d. from five mice. […] (right) Quantification of total lung bioluminescence from SCID mice as in (b) (n = 5 for each group). […]
All animal care and handling procedures were performed in accordance with the National Institutes of Health Guide for the Care and Use of Laboratory Animals, and were approved by the Institutional Review Board of Nanjing University (Nanjing, China). […] Lung nodules and progression were monitored and quantified using the bioluminescence system (Caliper IVIS Lumina XR) or by counting under a dissecting microscope. […] Mice were killed at day 28 or day 30 to collect lungs, and lung nodules in serial sections were quantified microscopically. […] Lung nodules and progression were monitored and quantified using the bioluminescence system (Caliper IVIS Lumina XR). […]

CK2α = CK2α mRNA and protein expression, H1299 cells; assay type: cell-based, human; details: vs Scr
Protocol: Cellular proteins were extracted by RIPA lysis buffer at high salt concentration (420 mM NaCl), and western blot analysis was performed in accordance with standard protocols. Scans of enhanced chemiluminescence (ECL) films showing uncropped blots are presented in Supplementary Fig. 10. […]
Total RNA from tissue samples and cultured cells was extracted using TRIzol reagent (Invitrogen). cDNAs were synthesized with a HiScript 1st Strand cDNA Synthesis Kit (Vazyme Biotech, China). Quantitative RT-PCR was performed using a FastStart Universal SYBR Green Master (Roche) according to the manufacturer’s instructions in a Rotor-Gene 6000 (Corbett Research) in a final volume of 20 μl. […]
Supplementary Figure 8. […] (a) Quantitative real-time PCR analysis of NatD and CK2α mRNA levels in scrambled and NatD-KD H1299 cells normalized to GAPDH. […]

## NatD-KD2: Human NatD shRNA KD2: 5′-GGTTGAATGTCTCCATTGA-3′, lentiviral (shRNA lentiviral)
A549 cells; BLI days 1-28, n = 5, vs Scr
  lung cancer growth signals (photon radiance): significantly reduced
A549 cells; day 28, n = 5, relative to Scr
  number of tumor nodules: decreased threefold
CK2α
  levels of CK2α mRNA or protein: no increase
